Experimental data reported in patent US20160113900A1, “INHIBITORS OF MITOCHONDRIAL STAT3 AND USES THEREOF IN MODULATION OF MAST CELL EXOCYTOSIS” (Yissum Research Development Company of the Hebrew …, priority 2014, published 2016).

Columns and labels:
[1] = test system: RBL cells; test: ATP determination (ATPLite luminescence) in RBL cells; type: cell-based, rat; conditions: RBL cells, 60 μM Stattic, 20 min
Experimental: (§1) RBL-2H3 cells were maintained in RPMI 1640 medium as previously described1. Bone marrow was isolated from 5-6 week-old mice, and BMMC were cultured in RPMI medium supplemented with 20 ng/ml interleukin-3 (IL-3) and 20 ng/ml SCF as previously described2, 3. Cells were generally grown for a minimum of 4 weeks and used when >90% of the population expressed FcεRI. BMMC and RBL cells were sensitized first with anti-DNP IgE monoclonal antibody (SPE-7; Sigma-Aldrich Corp.) and then challenged with DNP-BSA (Sigma-Aldrich Corp.). IgE antibody was centrifuged (18,000 g, 5 min) before use to remove aggregates. […] For glycolysis elimination cells were maintained in glucose-free RPMI supplemented with 10% dialyzed fetal calf serum and 5 mM galactose.
(§2) ATP levels were measured using the ATPLite luminescence-based assay according to the manufacturer's instructions (Perkin Elmer, Waltham, Mass., USA).

[2] = test system: BMMC; test: ATP determination (ATPLite luminescence) in BMMC; type: cell-based, mouse; conditions: 60 μM Stattic, 20 min
Experimental: as §1, §2

[3] = test system: succinate dehydrogenase (SDH, complex 2); test: ETC complex activity analysis in treated RBL cells: complex 2; type: cell-based, rat; conditions: 60 μM Stattic, 30 min
Experimental: The enzymatic activities of respiratory chain complexes were measured at 37° C. by standard spectrophotometric methods as previously described5, 6. Briefly, complex II was measured as succinate dehydrogenase (SDH) based on the succinate-mediated phenazine methosulfate reduction of dichloroindophenol at 600 nm Complex 2+3 were measured as succinate cytochrome c reductase and after the reduction of oxidized cytochrome c at 550 nm. Complex 4 (cytochrome c oxidase) was measured by following the oxidation of reduced cytochrome c at 550 nm.
Citrate synthase (CS), an ubiquitous mitochondrial matrix enzyme, serving as a control, was measured in the presence of acetylCoA and oxaloacetate by monitoring the liberation of CoASH coupled to 5′,5′-dithiobis(2-nitrobenzoic) acid at 412 nm. Activities are presented as a ratio to CS. Protein concentration was determined by the Lowry method and calculated according to a bovine serum albumin (BSA) standard curve.

[4] = test system: STAT3 serine 727 phosphorylation; test: Western blot of STAT3 serine 727 phosphorylation in activated RBL cells; type: cell-based, rat; conditions: RBL cells, 60 μM Stattic 20 min, immunologically activated 5 min
Experimental: RBL cells were washed once in cold PBS prior to homogenization. 9×10^6 cells were homogenized in buffer A (320 mm sucrose, 5 mm Tris, 2 mm EGTA, pH 7.4) with 10 strokes of a Teflon Dounce homogenizer. The procedure was performed at 4° C. The homogenate was centrifuged for 3 min at 2000 g and the supernatant kept. This was repeated twice, and the supernatants combined then centrifuged for 3 min at 2000 g. to remove the nuclei and cell debris. The supernatant was transferred to a clean tube and centrifuged for 10 min at 12,000 g to pellet mitochondria, washed twice resuspended in a small volume of buffer A and stored at −70° C. In order to prepare mitoplasts, the mitochondrial pellet was resuspended in buffer A with the addition of 0.02% (w/v) digitonin. The pellet was resuspended and washed twice in large volumes of digitonin-free buffer A. […] Cells and mitochondria were vortexed and incubated on ice for 15 min. The lysates were then centrifuged at 14,000 g for 15 min and pellets were discarded. The protein concentration of each sample was determined using Bradford Reagent (Sigma-Aldrich). Proteins were resolved by 10-15% SDS-PAGE under reducing conditions and transferred to polyvinylidene difluoride membranes (Millipore Billerica, Ma). […] The membranes were washed three times with TBST for 5 mM before and after each incubation with secondary Ab. The proteins were detected with the appropriate secondary Ab (1 h; room temperature) coupled to HRP-conjugated goat anti-rabbit or anti-mouse Ab and visualized by chemiluminescence according to the manufacturer's instructions (Pierce).

[5] = test system: caspase3; test: Western blot of caspase3 / cleaved caspase3 (apoptosis) in RBL cells; type: cell-based, rat; conditions: activated RBL cells, 60 μM Stattic
Experimental: RBL cells and mitochondrial pellets were lysed by the addition of lysis buffer (50 mM Tris-HCl pH 7.4, 1% Nonidet P-40, 0.25% Na-deoxycholate, 150 mM NaCl, 1 mM EDTA, 1 mM PMSF) supplemented with 15 μl protease inhibitor (Sigma-Aldrich). Cells and mitochondria were vortexed and incubated on ice for 15 min. The lysates were then centrifuged at 14,000 g for 15 min and pellets were discarded. The protein concentration of each sample was determined using Bradford Reagent (Sigma-Aldrich). Proteins were resolved by 10-15% SDS-PAGE under reducing conditions and transferred to polyvinylidene difluoride membranes (Millipore Billerica, Ma). The membranes were incubated in 5% fat-free milk and TBST (10 mM Tris-HCl, pH 7.4, 150 mM NaCl, 0.1% Tween 20) for 1 h and then in 5% BSA and TBST containing various dilutions of primary Abs for 18 h at 4° C. The membranes were washed three times with TBST for 5 mM before and after each incubation with secondary Ab. The proteins were detected with the appropriate secondary Ab (1 h; room temperature) coupled to HRP-conjugated goat anti-rabbit or anti-mouse Ab and visualized by chemiluminescence according to the manufacturer's instructions (Pierce).

[6] = test system: RBL cells; test: TNF-α secretion of activated RBL cells; type: cell-based, rat; conditions: RBL cells, IgE/DNP-BSA, 60 μM Stattic 20 min

O=[N+]([O-])c1ccc2c(c1)S(=O)(=O)C=C2 [Stattic, 6-Nitrobenzo[b]thiophene 1,1-dioxide, reference compound]
reduction in ATP levels [1]: 72.0±9.0%
reduction in ATP levels [2]: 76.4±9.3%
change in succinate dehydrogenase (SDH, complex 2) activity [3]: No significant change
phosphorylation levels of STAT3 serine 727 in total cell lysate [4]: significant reduction
caspase3 levels (apoptosis) [5]: no change
TNF-α secretion [6]: completely abolished
